For experiment [1], the target named is T1, human bradykinin 1 receptor (B1R) (Homo sapiens, UniProt P46663).
T1 construct: expressed in transfected cells
T1 sequence (P46663 1-353): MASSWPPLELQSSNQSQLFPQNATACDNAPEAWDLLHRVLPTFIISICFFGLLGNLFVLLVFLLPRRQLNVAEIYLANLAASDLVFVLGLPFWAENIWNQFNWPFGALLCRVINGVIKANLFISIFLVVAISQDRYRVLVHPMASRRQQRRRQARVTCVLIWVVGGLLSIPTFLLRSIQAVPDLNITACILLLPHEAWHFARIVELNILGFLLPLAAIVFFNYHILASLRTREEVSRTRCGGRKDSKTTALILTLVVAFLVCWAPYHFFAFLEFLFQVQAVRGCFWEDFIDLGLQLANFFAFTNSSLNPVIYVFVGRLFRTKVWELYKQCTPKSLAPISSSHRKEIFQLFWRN
Description: FLIPR Ca2+ assay, B1R antagonism, human. The format is cell-based. The settings on record: 10 μM test substance, CHO K1 cells with human B1R gene (hB1R cells), Lys-Des-Arg9-bradykinin at EC80, % inhibition compared with the maximum achievable inhibition; for inhibition at 10 µM: read-out: B1R antagonism, human [10 μM] % inhibition. Here is the method: The agonistic or antagonistic action of substances can be quantified on the bradykinin 1 receptor (B1R) of the human and rat species with ectopically expressing cell lines (CHO K1 cells) and with the aid of a Ca^2+-sensitive dyestuff (Fluo-4) in a fluorescent imaging plate reader (FLIPR). The figure in % activation is based on the Ca^2+ signal after addition of Lys-Des-Arg^9-bradykinin (0.5 nM) or Des-Arg^9-bradykinin (100 nM). Antagonists lead to a suppression of the Ca^2+ inflow after addition of the agonist. % inhibition compared with the maximum achievable inhibition is stated.
The agonistic or antagonistic action of substances can be determined on the bradykinin 1 receptor (B1R) of the human and rat species with the following assay. In accordance with this assay, the Ca^2+ inflow through the channel is quantified with the aid of a Ca^2+-sensitive dyestuff (type Fluo-4, Molecular Probes Europe BV, Leiden, Holland) in a fluorescent imaging plate reader (FLIPR, Molecular Devices, Sunnyvale, USA).
Chinese hamster ovary cells (CHO K1 cells) transfected stably with the human B1R gene (hB1R cells) or the B1R gene of the rat (rB1R cells) are used. For functional studies, these cells are plated out on black 96-well plates with a clear base (BD Biosciences, Heidelberg, Germany or Greiner, Frickenhausen, Germany) in a density of 20,000-35,000 cells/well. The cells are left overnight at 37° C. and 5% CO2 in culture medium (hB1R cells: Nutrient Mixture Ham's F12, Gibco Invitrogen GmbH, Karlsruhe, Germany or DMEM, Sigma-Aldrich, Taufkirchen, Germany; rB1R cells: D-MEM/F12, Gibco Invitrogen GmbH, Karlsruhe, Germany) with 10 vol. % FBS (foetal bovine serum, Gibco Invitrogen GmbH, Karlsruhe, Germany or PAN Biotech GmbH, Aidenbach, Germany).
On the following day, the cells are loaded for 60 min at 37° C. with 2.13 μM Fluo-4 (Molecular Probes Europe BV, Leiden, Holland) in HBSS buffer (Hank's buffered saline solution, Gibco Invitrogen GmbH, Karlsruhe, Germany) with 2.5 mM probenecid (Sigma-Aldrich, Taufkirchen, Germany) and 10 mM HEPES (Sigma-Aldrich, Taufkirchen, Germany). The plates are then washed 2× with HBSS buffer, and HBSS buffer which additionally contains 0.1% BSA (bovine serum albumin; Sigma-Aldrich, Taufkirchen, Germany), 5.6 mM glucose and 0.05% gelatine (Merck KGaA, Darmstadt, Germany) is added. After a further incubation of 20 minutes at room temperature, the plates are inserted into the FLIPR for the Ca^2+ measurement.
Alternatively, the plates are washed with buffer A (15 mM HEPES, 80 mM NaCl, 5 mM KCl, 1.2 mM CaCl2, 0.7 mM MgSO4, 2 g/l glucose, 2.5 mM probenecid), buffer A is added and the plates are loaded with 2.5 μM Fluo-4 and 0.025% Pluronic F127 (Sigma-Aldrich, Taufkirchen, Germany). Thereafter, the cells are washed 2× with buffer A and incubated for 30 minutes with buffer A, which additionally contains 0.05% BSA and 0.05% gelatine, at room temperature and thereafter inserted into the FLIPR for the Ca^2+ measurement.
The Ca^2+-dependent fluorescence is measured here before and after addition of substances (λex=488 nm, λem=540 nm). Quantification is by measurement of the highest fluorescence intensity (FC, fluorescence counts) over time.
The FLIPR protocol consists of 2 additions of substance. Test substances (10 μM) are first pipetted on to the cells and the Ca^2+ inflow is compared with the control (hB1R: Lys-Des-Arg^9-bradykinin >=50 nM; rB1R: Des-Arg^9-bradykinin 10 μM). This gives the figure in % activation based on the Ca^2+ signal after addition of Lys-Des-Arg^9-bradykinin (>=50 nM) or Des-Arg^9-bradykinin (10 μM).
After incubation for 10-20 minutes, Lys-Des-Arg^9-bradykinin (hB1R) or Des-Arg^9-bradykinin (rB1R) in the concentration of the EC80 is applied and the inflow of Ca^2+ is likewise determined. Antagonists lead to a suppression of the Ca^2+ inflow. % inhibition compared with the maximum achievable inhibition is calculated. […]

Experiment [2] has as its target T2, bradykinin 1 receptor (B1R) of the rat (Rattus norvegicus, UniProt P97583).
T2 construct: expressed in transfected cells
T2 sequence (P97583 1-337): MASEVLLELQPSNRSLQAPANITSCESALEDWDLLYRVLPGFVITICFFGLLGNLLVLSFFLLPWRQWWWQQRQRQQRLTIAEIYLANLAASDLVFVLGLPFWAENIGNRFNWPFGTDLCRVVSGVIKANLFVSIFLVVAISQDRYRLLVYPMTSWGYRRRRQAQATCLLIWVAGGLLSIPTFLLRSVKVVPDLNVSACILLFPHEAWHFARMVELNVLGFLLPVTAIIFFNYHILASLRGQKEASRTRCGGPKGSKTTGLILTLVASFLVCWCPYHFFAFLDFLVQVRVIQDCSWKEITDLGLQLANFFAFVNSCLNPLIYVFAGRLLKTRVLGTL
Description: FLIPR Ca2+ assay, B1R antagonism, rat. Format: cell-based. The gist of the method:
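Antagonism is given as % of maximum achievable suppression of agonist-evoked Ca2+ influx, measured by Fluo-4 peak fluorescence in FLIPR. Stable hB1R or rB1R CHO K1 lines received 10 μM compound for 10-20 min before EC80 Lys-Des-Arg9-bradykinin (human) or Des-Arg9-bradykinin (rat).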

The mark [3] stands for this setting: CHO-K1, 10 μM test substance, CHO K1 cells with rat B1R gene (rB1R cells), Des-Arg9-bradykinin at EC80, % inhibition compared with the maximum achievable inhibition, read-out: B1R antagonism, rat [10 μM] % inhibition.

Each structure is given as a SMILES string. Counter-ions that a name gives are not always drawn. Like-named read-outs stand apart in the source and are kept apart here.

The term inhibition denotes the change of the read-out against control, counted positive when it falls. Turning to `COc1cc(C)c(S(=O)(=O)N2c3ccccc3CCC2COCC(=O)N2CCC(OCCN3CCCC3)(c3cccc(F)c3)CC2)c(C)c1` (stereo not drawn) [Example 102, 1-[4-(3-fluorophenyl)-4-(2-pyrrolidin-1-yl-ethoxy)-piperidin-1-yl]-2-[[1-[(4-methoxy-2,6-dimethyl-phenyl)sulfonyl]-1,2,3,4-tetrahydro-quinolin-2-yl]-methoxy]-ethanone], the inhibition at 10 µM in experiment [1] was 99%; in experiment [2] (setting [3]), 98%.

On to `COc1cc(C)c(S(=O)(=O)N2CCCCC2CCCC(=O)N2CCC(OCCN3CCCC3)(c3cccnc3)CC2)c(C)c1` (stereo not drawn) [Example 87, 4-[1-[(4-methoxy-2,6-dimethyl-phenyl)sulfonyl]-piperidin-2-yl]-1-[4-pyridin-3-yl-4-(2-pyrrolidin-1-yl-ethoxy)-piperidin-1-yl]-butan-1-one], for which the inhibition at 10 µM in experiment [1] came to 100%; in experiment [2] (setting [3]), 102%.

With `Cc1cc(S(=O)(=O)N2CCCCC2CCC(=O)N2CCC(OCCCN3CCN(C)CC3)(c3cccnc3)CC2)c(C)cc1Cl` (stereo not drawn) [Example 36, 3-(1-(4-chloro-2,5-dimethylphenylsulfonyl)piperidin-2-yl)-1-(4-(3-(4-methylpiperazin-1-yl)propoxy)-4-(pyridin-3-yl)piperidin-1-yl)propan-1-one], the inhibition at 10 µM amounted to 85% in experiment [1] and 93% in experiment [2] (setting [3]).

Consider `O=C(CC(NS(=O)(=O)c1ccc2ccccc2c1)c1ccccc1)N1CCC(OCCCN2CCCC2)(c2cccnc2)CC1` (stereo not drawn) [Example 44, N-(3-oxo-1-phenyl-3-(4-(pyridin-3-yl)-4-(3-(pyrrolidin-1-yl)propoxy)piperidin-1-yl)propyl)naphthalene-2-sulfonamide], for which the inhibition at 10 µM in experiment [1] came to 95%; in experiment [2] (setting [3]), 102%.

Consider `COc1cc(C)c(S(=O)(=O)N(CCOCC(=O)N2CCC(OCCN3CCCC3)(c3cccc(F)c3)CC2)c2ccccc2)c(C)c1` [Example 99, N-[2-[2-[4-(3-fluorophenyl)-4-(2-pyrrolidin-1-yl-ethoxy)-piperidin-1-yl]-2-oxo-ethoxy]-ethyl]-4-methoxy-2,6-dimethyl-N-phenyl-benzenesulfonic acid amide], for which the inhibition at 10 µM worked out at 99% in experiment [1] and 97% in experiment [2] (setting [3]).

Take `COc1cc(C)c(S(=O)(=O)N2CCCC[C@H]2COCC(=O)N2CCC(OCCN3CCCC3)(c3cccnc3)CC2)c(C)c1` [Example 46, (S)-2-((1-(4-methoxy-2,6-dimethylphenylsulfonyl)piperidin-2-yl)methoxy)-1-(4-(pyridin-3-yl)-4-(2-(pyrrolidin-1-yl)ethoxy)piperidin-1-yl)ethanone hydrochloride]: the inhibition at 10 µM in experiment [1] turned out to be 100%; in experiment [2] (setting [3]), 102%.

As to `COc1cc(C)c(S(=O)(=O)N2CCCCC2CCCC(=O)N2CCC(OCCN3CCCC3)(c3cccnc3)CC2)c(C)c1` (stereo not drawn) [Example 2, 4-(1-(4-methoxy-2,6-dimethylphenylsulfonyl)piperidin-2-yl)-1-(4-(pyridin-3-yl)-4-(2-(pyrrolidin-1-yl)ethoxy)piperidin-1-yl)butan-1-one], the “B1R antagonism, human [10 μM] % inhibition” value in experiment [1] (10 µM) came to 97%. Moreover, the inhibition at 10 µM in experiment [2] (CHO-K1, read-out: B1R antagonism, rat [10 μM] % inhibition) turned out to be 99%.

For the compound `COc1cc(C)c(S(=O)(=O)N2c3ccccc3CCC2COCC(=O)N2CCC(OCCN3CCCC3)(c3cccnc3)CC2)c(C)c1` (stereo not drawn) [Example 101, 2-[[1-[(4-methoxy-2,6-dimethyl-phenyl)sulfonyl]-1,2,3,4-tetrahydro-quinolin-2-yl]-methoxy]-1-[4-pyridin-3-yl-4-(2-pyrrolidin-1-yl-ethoxy)-piperidin-1-yl]-ethanone], the inhibition at 10 µM in experiment [1] amounted to 100%; in experiment [2] (setting [3]), 102%.

As for `COc1cc(C)c(S(=O)(=O)N2CCCCC2CCCC(=O)N2CCC(OCCN3CCCC3)(c3ccncc3)CC2)c(C)c1` (stereo not drawn) [Example 90, 4-[1-[(4-methoxy-2,6-dimethyl-phenyl)sulfonyl]-piperidin-2-yl]-1-[4-pyridin-4-yl-4-(2-pyrrolidin-1-yl-ethoxy)-piperidin-1-yl]-butan-1-one], the inhibition at 10 µM in experiment [1] is 100%; in experiment [2] (setting [3]) it was 102%.

Source of the values: patent US8318769B2, “Substituted sulfonamide compounds” (Gruenethal GmbH, priority 2008, dated 2012).
